22 compounds from patent US20190367516A1 (Bayer Pharma Aktiengesellschaft, priority 2015, published 2019) can be followed below.

The target in test [1] is T1, human M2 receptor (Homo sapiens, UniProt P08172).
T1 sequence (P08172 1-466): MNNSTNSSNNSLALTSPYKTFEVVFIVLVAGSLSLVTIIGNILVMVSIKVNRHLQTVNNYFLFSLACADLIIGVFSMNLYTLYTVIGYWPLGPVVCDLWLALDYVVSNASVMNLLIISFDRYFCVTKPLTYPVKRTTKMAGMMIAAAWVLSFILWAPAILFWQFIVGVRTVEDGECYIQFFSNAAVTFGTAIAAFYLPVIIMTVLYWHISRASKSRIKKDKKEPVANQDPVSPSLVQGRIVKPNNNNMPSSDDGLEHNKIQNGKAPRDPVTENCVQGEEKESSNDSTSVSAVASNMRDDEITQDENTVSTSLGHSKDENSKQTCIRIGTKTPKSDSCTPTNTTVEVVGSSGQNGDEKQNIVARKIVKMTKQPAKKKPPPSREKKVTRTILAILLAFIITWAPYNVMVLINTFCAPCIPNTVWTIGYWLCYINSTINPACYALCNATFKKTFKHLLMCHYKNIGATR
In kind it is cell-based. Conditions: shift in the acetylcholine dose-response curve (Allosteric EC50 shift, GraphPad PRISM); α >1 = positive cooperativity.

The target of test [2] is T1, human M2 receptor. Conditions: for EC50: Receptor activity EC50, M2-GIRK1/4 activation test, acetylcholine at EC20, allosteric potency, in some cases mean values from two or more determinations.

As a reminder, the EC50 is the midpoint of the concentration-response curve. Read a low EC50 as an effect from little substance. For `CC[C@@H](NC(=O)c1cn(-c2ccc(F)cc2F)c2nc(N3CCC(O)(O)C(F)(F)C3)ccc2c1=O)C(F)(F)F` [Example 35, 7-(3,3-Difluoro-4,4-dihydroxypiperidin-1-yl)-1-(2,4-difluorophenyl)-4-oxo-N-[(2R)-1,1,1-trifluorobutran-2-yl]-1,4-dihydro-1,8-naphthyridine-3-carboxamide], in test [1], the “Cooperativity (alpha factor)” value came to 24. In test [2], this compound yielded a concentration giving a half-maximal response (EC50) of 62 nM.

On to `CN(C)c1ccc2c(=O)c(C(=O)NC34CC5CC(CC(C5)C3)C4)cn(-c3ccc(F)cc3F)c2n1` [Example 36, 1-(2,4-Difluorophenyl)-7-(dimethylamino)-4-oxo-N-(tricyclo[3.3.1.1^3,7]dec-1-yl)-1,4-dihydro-1,8-naphthyridine-3-carboxamide], for which, in test [1], the “Cooperativity (alpha factor)” value is recorded as 16. The same compound showed an EC50 in test [2] of 19 nM. The Emax in test [2] (read-out: Efficiency) was found to be 96.1%.

Turning to `CN(C)c1ccc2c(=O)c(C(=O)NC34CC5CC(F)(CC(F)(C5)C3)C4)cn(-c3ccc(F)cc3F)c2n1` [Example 38, 1-(2,4-Difluorophenyl)-N-(3,5-difluorotricyclo[3.3.1.1^3,7]dec-1-yl)-7-(dimethylamino)-4-oxo-1,4-dihydro-1,8-naphthyridine-3-carboxamide], in test [1], the “Cooperativity (alpha factor)” value is 14. Moreover, in test [2], a half-maximal effect (EC50) was put at 41 nM.

Turning to `CN(C)c1ccc2c(=O)c(C(=O)NC34CC5CC(C3)C(F)(F)C(C5)C4)cn(-c3ccc(F)cc3F)c2n1` [Example 39, 1-(2,4-Difluorophenyl)-N-(4,4-difluorotricyclo[3.3.1.1^3,7]dec-1-yl)-7-(dimethylamino)-4-oxo-1,4-dihydro-1,8-naphthyridine-3-carboxamide], the “Cooperativity (alpha factor)” value in test [1] is given as 14. In test [2], this compound showed an EC50 of 88 nM.

As for `C[C@H](NC(=O)c1cn(-c2ccc(F)cc2F)c2nc(N(C)C)ccc2c1=O)C(F)(F)F` [Example 44, 1-(2,4-Difluorophenyl)-7-(dimethylamino)-4-oxo-N-[(2S)-1,1,1-trifluoropropan-2-yl]-1,4-dihydro-1,8-naphthyridine-3-carboxamide], the “Cooperativity (alpha factor)” value in test [1] was 12. Further, in test [2], the response was half-maximal at 111 nM (EC50).

`CN(C)c1ccc2c(=O)c(C(=O)Nc3ccccc3C(F)(F)F)cn(-c3ccc(F)cc3F)c2n1` [Example 57, 1-(2,4-Difluorophenyl)-7-(dimethylamino)-4-oxo-N-[2-(trifluoromethyl)phenyl]-1,4-dihydro-1,8-naphthyridine-3-carboxamide]: in test [1], the “Cooperativity (alpha factor)” value amounted to 7. A half-maximal effect in test [2] (EC50) was put at 82 nM.

For `CN(C)c1ccc2c(=O)c(C(=O)NCc3ccccc3C(F)(F)F)cn(-c3ccc(F)cc3F)c2n1` [Example 59, 1-(2,4-Difluorophenyl)-7-(dimethylamino)-4-oxo-N-[2-(trifluoromethyl)benzyl]-1,4-dihydro-1,8-naphthyridine-3-carboxamide], the “Cooperativity (alpha factor)” value in test [1] is on record as 11. The EC50 in test [2] came to 94 nM.

In the case of `CN(C)c1ccc2c(=O)c(C(=O)NCc3c(F)cccc3C(F)(F)F)cn(-c3ccc(F)cc3F)c2n1` [Example 60, 1-(2,4-Difluorophenyl)-7-(dimethylamino)-N-[2-fluoro-6-(trifluoromethyl)benzyl]-4-oxo-1,4-dihydro-1,8-naphthyridine-3-carboxamide], the “Cooperativity (alpha factor)” value in test [1] is 8. For the same compound, in test [2], the EC50 was 155 nM.

Turning to `CC[C@H](NC(=O)c1cn(-c2ccc(F)cc2F)c2nc(N3CC[C@H](F)C3)ccc2c1=O)C(F)(F)F` [Example 64, 1-(2,4-Difluorophenyl)-7-[(3S)-3-fluoropyrrolidin-1-yl]-4-oxo-N-[(2S)-1,1,1-trifluorobutan-2-yl]-1,4-dihydro-1,8-naphthyridine-3-carboxamide], the “Cooperativity (alpha factor)” value in test [1] is recorded as 28. Besides, the EC50 in test [2] amounted to 12 nM.

On to `CC(C)CC(NC(=O)c1cn(-c2ccc(F)cc2F)c2nc(N3CC[C@H](F)C3)ccc2c1=O)C(F)(F)F` (stereo partly drawn) [Example 65, 1-(2,4-Difluorophenyl)-7-[(3S)-3-fluoropyrrolidin-1-yl]-4-oxo-N-[1,1,1-trifluoro-4-methylpentan-2-yl]-1,4-dihydro-1,8-naphthyridine-3-carboxamide], for which, in test [1], the “Cooperativity (alpha factor)” value was 36. It took 7 nM to reach a half-maximal effect in test [2] (EC50).

Take `O=C(NC(C(F)(F)F)C(F)(F)F)c1cn(-c2ccc(F)cc2F)c2nc(N3CC[C@H](F)C3)ccc2c1=O` [Example 70, 1-(2,4-Difluorophenyl)-7-[(3S)-3-fluoropyrrolidin-1-yl]-N-(1,1,1,3,3,3-hexafluoropropan-2-yl)-4-oxo-1,4-dihydro-1,8-naphthyridine-3-carboxamide]: the “Cooperativity (alpha factor)” value in test [1] is on record as 29. For the same compound, in test [2], it took 76 nM to reach a half-maximal effect (EC50).

With `CCC(NC(=O)c1cn(-c2ccc(F)cc2F)c2nc(N3CC[C@H](F)C3)ccc2c1=O)C(F)(F)F` (stereo partly drawn) [Example 71, 1-(2,4-Difluorophenyl)-7-[(3S)-3-fluoropyrrolidin-1-yl]-4-oxo-N-[1,1,1-trifluorobutan-2-yl]-1,4-dihydro-1,8-naphthyridine-3-carboxamide], the “Cooperativity (alpha factor)” value in test [1] stood at 30. For the same compound, in test [2], the EC50 was 39 nM.

Regarding `CC[C@H](NC(=O)c1cn(-c2ccc(F)cc2F)c2nc(NCCF)ccc2c1=O)C(F)(F)F` [Example 87, 1-(2,4-Difluorophenyl)-7-[(2-fluoroethyl)amino]-4-oxo-N-[(2S)-1,1,1-trifluorobutan-2-yl]-1,4-dihydro-1,8-naphthyridine-3-carboxamide], the “Cooperativity (alpha factor)” value in test [1] turned out to be 26. This compound displayed an EC50 in test [2] of 129 nM.

As to `O=C(NC(C(F)(F)F)C(F)(F)F)c1cn(-c2ccc(F)cc2F)c2nc(NCCF)ccc2c1=O` [Example 89, 1-(2,4-Difluorophenyl)-7-[(2-fluoroethyl)amino]-N-(1,1,1,3,3,3-hexafluoropropan-2-yl)-4-oxo-1,4-dihydro-1,8-naphthyridine-3-carboxamide], the “Cooperativity (alpha factor)” value in test [1] is reported as 20. In addition, the EC50 in test [2] was 413 nM.

With `O=C(NC12CC3CC(CC(C3)C1)C2)c1cn(-c2ccc(F)cc2F)c2nc(NCC(F)(F)F)ccc2c1=O` [Example 90, 1-(2,4-Difluorophenyl)-4-oxo-N-(tricyclo[3.3.1.1^3,7]dec-1-yl)-7-[(2,2,2-trifluoroethyl)amino]-1,4-dihydro-1,8-naphthyridine-3-carboxamide], the “Cooperativity (alpha factor)” value in test [1] is on record as 11. In addition, in test [2], the EC50 came out at 298 nM.

Consider `CC(NC(=O)c1cn(-c2ccc(F)cc2F)c2nc(NCC(F)(F)F)ccc2c1=O)C(F)(F)F` (stereo not drawn) [Example 93, 1-(2,4-Difluorophenyl)-4-oxo-7-[(2,2,2-trifluoroethyl)amino]-N-[1,1,1-trifluoropropan-2-yl]-1,4-dihydro-1,8-naphthyridine-3-carboxamide], for which the “Cooperativity (alpha factor)” value in test [1] is listed as 8. The compound also came in with an EC50 in test [2] of 213 nM.

Regarding `O=C(NC12CCC(F)(CC1)CC2)c1cn(-c2ccc(F)cc2F)c2nc(NCC(F)(F)F)ccc2c1=O` [Example 97, 1-(2,4-Difluorophenyl)-N-(4-fluorobicyclo[2.2.2]oct-1-yl)-4-oxo-7-[(2,2,2-trifluoroethyl)amino]-1,4-dihydro-1,8-naphthyridine-3-carboxamide], the “Cooperativity (alpha factor)” value in test [1] is reported as 9. Moreover, in test [2], it took 209 nM to reach a half-maximal effect (EC50).

For `CC12CCC(NC(=O)c3cn(-c4ccc(F)cc4F)c4nc(NCC(F)(F)F)ccc4c3=O)(CC1)CC2` [Example 98, 1-(2,4-Difluorophenyl)-N-(4-methylbicyclo[2.2.2]oct-1-yl)-4-oxo-7-[(2,2,2-trifluoroethyl)amino]-1,4-dihydro-1,8-naphthyridine-3-carboxamide], the “Cooperativity (alpha factor)” value in test [1] was determined as 14. Also, the EC50 in test [2] was determined as 61 nM.

As for `CN(CCF)c1ccc2c(=O)c(C(=O)NC(C(F)(F)F)C(F)(F)F)cn(-c3ccc(F)cc3F)c2n1` [Example 111, 1-(2,4-Difluorophenyl)-7-[(2-fluoroethyl)(methyl)amino]-N-(1,1,1,3,3,3-hexafluoropropan-2-yl)-4-oxo-1,4-dihydro-1,8-naphthyridine-3-carboxamide], the “Cooperativity (alpha factor)” value in test [1] is 26. The EC50 in test [2] came out at 35 nM.

Turning to `CC[C@@H](NC(=O)c1cn(-c2ccc(F)cc2F)c2nc(NCC(F)F)ccc2c1=O)C(F)(F)F` [Example 123, 7-[(2,2-Difluoroethyl)amino]-1-(2,4-difluorophenyl)-4-oxo-N-[(2R)-1,1,1-trifluorobutan-2-yl]-1,4-dihydro-1,8-naphthyridine-3-carboxamide], in test [1], the “Cooperativity (alpha factor)” value came out at 14. For the same compound, in test [2], a half-maximal effect (EC50) was put at 115 nM.

`O=C(NC12CC3CC(CC(C3)C1)C2)c1cn(-c2ccc(F)cc2F)c2nc(N3CCOC3=O)ccc2c1=O` [Example 128, 1-(2,4-Difluorophenyl)-4-oxo-7-(2-oxo-1,3-oxazolidin-3-yl)-N-(tricyclo[3.3.1.1^3,7]dec-1-yl)-1,4-dihydro-1,8-naphthyridine-3-carboxamide]: in test [1], the “Cooperativity (alpha factor)” value is recorded as 18. This compound also registered a concentration giving a half-maximal response (EC50) in test [2] of 57 nM.

For `O=C(Nc1c(Cl)cccc1Cl)c1cn(-c2ccc(F)cc2F)c2nc(NCC(F)(F)F)ccc2c1=O` [Example 163, N-(2,6-Dichlorophenyl)-1-(2,4-difluorophenyl)-4-oxo-7-[(2,2,2-trifluoroethyl)amino]-1,4-dihydro-1,8-naphthyridine-3-carboxamide], the “Cooperativity (alpha factor)” value in test [1] is reported as 13. In test [2], this compound had an EC50 of 173 nM.
